Consider 5 compounds from patent US12410124B2 (priority 2019, dated 2025).

One experiment deals with substantia nigra GFAP. Put plainly: Number of substantia nigra astrocytes with GFAP positive expression in MPTP Parkinson's disease model mouse (immunohistochemistry). The class given is in vivo. Conditions: for Positive cell number (astrocytes with GFAP positive expression): substantia nigra, MPTP Parkinson's disease model mouse, immunohistochemistry. As for the experimental part:
(§1) Neurotoxins can be used to establish PD animal models. Currently, 1-methyl-4-phenyl-1,2,3,6-tetrahydropyridine (MPTP) is the sole synthetic toxin which is recognized to induce PD symptoms in human and non-human primates and in mice. Using MPTP subacute modeling method, C57BL/6J male mice were intraperitoneally injected with MPTP 30 mg/kg, once a day for 5 consecutive days. The experiment animals were divided into blank control group, MPTP model group, and compound treatment group. For the […] compound treatment group, the compound was administrated by gavage for 21 consecutive days after the completion of modeling; for the MPTP model group, the normal saline was administrated by gavage for 21 consecutive days after the completion of modeling; and for the blank control group, the normal saline was first intraperitoneally injected for 5 days, and then administrated by gavage for 21 days.
(§2) Neuron-glial cell network homeostasis disorder is an important factor for the selective and progressive death of substantia nigra dopaminergic neurons in PD. In the neurotoxic effect of MPTP, the excessive activations of microglial cells and astrocytes produce a variety of inflammatory cytokines and reactive oxygen species (ROS). These inflammatory factors and ROS amplify their respective toxicities and mediate malignant feedback loop, causing a cascade inflammation response and aggravating the pathological process of PD. CD11b and GFAP are the marker proteins for activations of microglial cells and astrocytes, respectively. Therefore, the effect of the target compounds on the activations of the microglial cells and astrocytes in the substantia nigra, hippocampus, and midbrain areas of MPTP-induced PD mice can be investigated, to explore the mechanism of the anti-PD effect of the target compounds by inhibiting the neuroinflammation.
(§3) Half of experiment mice in each group were taken to separate the midbrain after perfusion and fixation. The tissue was trimmed, and the substantia nigra area was taken to prepare paraffin sections. The GFAP immunohistochemical staining was performed for the statistics of the change in the number of astrocytes with GFAP positive expression. The experiment included blank control group, MPTP model group, positive control group (caffeic acid phenethyl ester, CAPE), prototype control group (styryl sulfone compounds 3B, 3C, 3D, and 3G, whose structures are shown as above), and target compound group.

A further experiment has as its system primary glial cells. Kind of experiment: Inhibition of the NO release of primary glial cells induced by LPS. The experiment is classed as cell-based, rat. The following applies: for inhibition at 5 µM / inhibition at 10 µM / inhibition at 20 µM / inhibition at 2 µM: Rattus norvegicus, Glial cell, read-out: NO inhibition (%). The text has this:
Lipopolysaccharide (LPS) is a main component of the cell wall of Gram-negative bacteria. It is a potent inflammatory factor that can directly activate gliocytes, and the activated gliocytes secrete a large amount of inflammation mediators such as tumor necrosis factor, interleukin, and nitric oxide, thus causing inflammatory reactions and oxidative stress reactions and eventually leading to neuronal denaturation and death. In recent years, the targeted injection of LPS into rat substantia nigra or striatum to induce neuroinflammation can successfully establish PD models, which can simulate most of the clinical manifestations and pathological features of PD, and are used for the study on the neuroinflammation mechanism associated with PD. LPS-induced primary glial cell PD inflammation model is suitable for the preliminary anti-neuroinflammation screening for neuroprotective agents. LPS is used to directly activate primary glial cells to simulate the pathogenesis mechanism of neuroinflammation, and the inhibitory activity of the target compounds on the inflammatory response of primary glial cells can be investigated.
The materials were taken from the brain tissue of fetal rat, for primary glial cell culture. At 7 to 10 days of the culture, LPS was added for the activation of nitric oxide (NO) release in glial cells. When a target compound was added, the reduction value for NO content in the cell culture medium was measured, to evaluate the anti-neuroinflammation activity of the compound. The experiment included blank control group, LPS model group, positive control group (caffeic acid phenethyl ester, CAPE), prototype control group (styryl sulfone compounds 3B, 3C, 3D, and 3G, the structures of which compounds are shown as above), and target compound group.

The next experiment has as its system HO-1. Put plainly: Midbrain HO-1 expression in MPTP Parkinson's disease model mouse (western blot). The experiment is classed as in vivo. Conditions: for Expression (HO-1/GAPDH): midbrain, MPTP Parkinson's disease model mouse, western blot. As for the experimental part: as §1
Oxidative stress is an important pathogenic mechanism of PD. Dopaminergic neurons are more sensitive to oxidative stress and are more susceptible to oxidative stress damage. Heme oxygenase (HO-1), a phase II enzyme, is also a well-known antioxidase. It plays an important protective role by catalyzing the conversion of free radicals into non-toxic products and increasing their water solubility to facilitate the elimination of free radicals, and maintain the redox balance in the body. It plays an important role in the process of protecting cells against oxidative stress damage. The activation of p38 protein phosphorylation has a negative regulatory effect on phase II enzymes. […] Using HO-1 as an indicator, the inhibitory effect of the target compounds on MPTP-induced oxidative stress damage in PD mice can be investigated.
HO-1 is expressed in astrocytes, microglial cells, and neurons. The total proteins of the midbrain tissue of mice in each experiment group were extracted, to determine the expression of phase II enzyme HO-1 in the midbrain of mice by western blot using GAPDH as the internal reference. The experiment included blank control group, MPTP model group, positive control group (caffeic acid phenethyl ester, CAPE), prototype control group (styryl sulfone compounds 3B, 3C, 3D, and 3G, whose structures are shown as above), and target compound group.

The next experiment relates to hippocampus CD11b. Kind of experiment: Number of hippocampus microglial cells with CD11b positive expression in MPTP Parkinson's disease model mouse (immunohistochemistry). Conditions: for Positive cell number (microglial cells with CD11b positive expression): hippocampus, MPTP Parkinson's disease model mouse, immunohistochemistry. The class given is in vivo. As for the experimental part: as §1, §2
as §3, with “hippocampus” for “substantia nigra”, “CD11b” for “GFAP”, “microglial cells” for “astrocytes”

For another experiment, the system named is midbrain CD11b. Kind of experiment: Midbrain CD11b protein expression in MPTP Parkinson's disease model mouse (western-blotting). The experiment is classed as in vivo. Conditions: for Expression (CD11b/GAPDH): midbrain, MPTP Parkinson's disease model mouse, western-blotting. As for the experimental part:
as §1, §2
[…] The experiment included blank control group, MPTP model group, positive control group (caffeic acid phenethyl ester, CAPE), prototype control group (styryl sulfone compounds 3B, 3C, 3D), and 3G, whose structures are shown as above), and target compound group.

For another experiment, the system named is midbrain TH. Put plainly: Midbrain TH expression in MPTP Parkinson's disease model mouse (western-blotting). The experiment is classed as in vivo. Conditions: midbrain total protein, GAPDH internal reference, gavage 21 days after MPTP modeling. As for the experimental part:
as §1
The main cause of PD lies in the pathological changes in the substantia nigra-striatum projection system of the brain and the progressive degeneration and loss of dopaminergic neurons. Tyrosine hydroxylase (TH) is the first enzyme in the biosynthesis of catecholamine neurotransmitters, as well as the first rate-limiting enzyme in the dopamine synthesis. It plays an important role in the synthesis and metabolism of the neurotransmitter DA. The TH in PD animal models and patients has a wide range of abnormal changes, from the gene expression to the enzyme protein content and enzyme activity. The detection of the TH expression in the midbrain and substantia nigra of PD model mice can be used to evaluate the neuroprotective activity of the compound.
Half of experiment mice in each group were taken to extract the total midbrain protein, and the change in the midbrain TH was determined by western-blotting using GAPDH as the internal reference. The experiment included blank control group, MPTP model group, positive control group (caffeic acid phenethyl ester, CAPE), prototype control group (styryl sulfone compounds 3B, 3C, 3D, and 3G, whose structures are shown as above), and target compound group.

Read-outs that look alike come from different tables or passages of the source.

On to `CCN(CC)C(=O)Oc1ccc(/C=C/S(=O)(=O)CCCc2ccccc2)cc1OC(=O)N(CC)CC` [Compound C1-1, (E)-4-[2-(3-phenylpropylsulfonyl)ethenyl]-1,2-phenylenebis(diethylcarbamate)], for which, in the experiment on substantia nigra GFAP, the “number of substantia nigra astrocytes with GFAP positive expression compared with the styryl sulfone prototype compounds” value is recorded as “significantly lower” and the “Positive cell number (astrocytes with GFAP positive expression)” value is given as 56 ± 4. In the experiment on primary glial cells, the “NO inhibitory rate compared with the styryl sulfone prototype compounds” value was “equivalent or higher inhibitory rate”. In addition, the inhibition at 5 µM with primary glial cells (5 μM) was 17.6 ± 3.24%. The inhibition at 10 µM with primary glial cells (10 μM) was found to be 32.8 ± 5.25%. Also, in the experiment with primary glial cells (20 μM), the inhibition at 20 µM is 59.5 ± 4.33%. For the same compound, in the experiment with HO-1, the “midbrain HO-1 expression compared with the styryl sulfone prototype compounds” value is “significantly higher” and the “Expression (HO-1/GAPDH)” value was found to be 0.88 ± 0.09. In the experiment with hippocampus CD11b, the “number of hippocampus microglial cells with CD11b positive expression compared with the styryl sulfone prototype compounds” value is “significantly lower” and the “Positive cell number (microglial cells with CD11b positive expression)” value is on record as 7 ± 2. In addition, in the experiment with midbrain CD11b, the “midbrain CD11b protein expression compared with the styryl sulfone prototype compounds” value is given as “equivalent or lower” and the “Expression (CD11b/GAPDH)” value was 1.11 ± 0.08. Moreover, the “Expression (TH/GAPDH)” value in the experiment on midbrain TH turned out to be 1.20 ± 0.06.

As for `CCN(CC)C(=O)Oc1ccc(/C=C/S(=O)(=O)Cc2ccc(Cl)cc2)cc1OC(=O)N(CC)CC` [Compound D1-1, (E)-4-{2-[(4-chlorophenyl)mesyl]ethenyl}-1,2-phenylenebis(diethylcarbamate)], in the experiment with substantia nigra GFAP, the “number of substantia nigra astrocytes with GFAP positive expression compared with the styryl sulfone prototype compounds” value was “significantly lower” and the “Positive cell number (astrocytes with GFAP positive expression)” value is given as 64 ± 3. Besides, in the experiment with primary glial cells, the “NO inhibitory rate compared with the styryl sulfone prototype compounds” value was “equivalent or higher inhibitory rate” and the inhibition at 2 µM was determined as 24.8 ± 4.08%. Further, the inhibition at 5 µM in the experiment with primary glial cells (5 μM) was 61.4 ± 2.77%. Besides, the inhibition at 10 µM in the experiment with primary glial cells (10 μM) was 84.5 ± 7.56%. Moreover, in the experiment with HO-1, the “midbrain HO-1 expression compared with the styryl sulfone prototype compounds” value is recorded as “significantly higher” and the “Expression (HO-1/GAPDH)” value was determined as 1.63 ± 0.12. Also, in the experiment on hippocampus CD11b, the “number of hippocampus microglial cells with CD11b positive expression compared with the styryl sulfone prototype compounds” value is given as “significantly lower” and the “Positive cell number (microglial cells with CD11b positive expression)” value was 7 ± 1. Moreover, in the experiment with midbrain CD11b, the “midbrain CD11b protein expression compared with the styryl sulfone prototype compounds” value is listed as “equivalent or lower” and the “Expression (CD11b/GAPDH)” value was 0.33 ± 0.05. Moreover, the “Expression (TH/GAPDH)” value in the experiment on midbrain TH was determined as 1.27 ± 0.05.

For `CC(=O)Oc1ccc(/C=C/S(=O)(=O)Cc2c(F)c(F)c(F)c(F)c2F)cc1OC(=O)NC(=O)c1ccc([N+](=O)[O-])c(C)c1` [Compound D5-4, (E)-2-[N-(3-methyl-4-nitrobenzoyl)carbamoyloxy]-4-{2-[(perfluorophenyl)mesyl]ethenyl}phenyl acetate], the “Positive cell number (astrocytes with GFAP positive expression)” value with substantia nigra GFAP was determined as 97 ± 5. Moreover, in the experiment with primary glial cells, the inhibition at 2 µM worked out at 24.3 ± 2.82%. Besides, in the experiment on primary glial cells (10 μM), the inhibition at 10 µM worked out at 80.7 ± 4.06%. For the same compound, the “Expression (HO-1/GAPDH)” value in the experiment on HO-1 was 0.93 ± 0.10. Moreover, the “Positive cell number (microglial cells with CD11b positive expression)” value in the experiment on hippocampus CD11b was determined as 12 ± 2. Further, the “Expression (CD11b/GAPDH)” value in the experiment with midbrain CD11b is 1.11 ± 0.10. Besides, the “Expression (TH/GAPDH)” value in the experiment with midbrain TH is 1.19 ± 0.05.

With `CNC(=O)Oc1ccc(/C=C/S(=O)(=O)CC(Cl)c2ccc(Cl)c([N+](=O)[O-])c2)cc1O` (stereo not drawn) [Compound E2-2, (E)-4-{2-[2-chloro-2-(4-chloro-3-nitrophenyl)ethylsulfonyl]ethenyl}-2-hydroxyphenyl-N-methylcarbamate], in the experiment on substantia nigra GFAP, the “Positive cell number (astrocytes with GFAP positive expression)” value was 102 ± 5. Further, in the experiment with primary glial cells, the inhibition at 5 µM came to 20.3 ± 4.73%, the inhibition at 10 µM was found to be 36.8 ± 6.11% and the inhibition at 20 µM amounted to 68.9 ± 3.75%. The “Expression (HO-1/GAPDH)” value in the experiment with HO-1 is recorded as 1.58 ± 0.08. Also, the “Positive cell number (microglial cells with CD11b positive expression)” value in the experiment with hippocampus CD11b amounted to 15 ± 2. For the same compound, in the experiment on midbrain CD11b, the “Expression (CD11b/GAPDH)” value came out at 1.17 ± 0.06. In addition, in the experiment on midbrain TH, the “Expression (TH/GAPDH)” value is 0.97 ± 0.03.

In the case of `CCN(CC)C(=O)Oc1ccc(/C=C/S(=O)(=O)Cc2ccc(C(C)(C)C)cc2)cc1OC(=O)N(CC)CC` [Compound G1-1, (E)-4-{2-[(4-t-butylphenyl)mesyl]ethenyl}-1,2-phenylenebis(diethylcarbamate)], in the experiment with substantia nigra GFAP, the “number of substantia nigra astrocytes with GFAP positive expression compared with the styryl sulfone prototype compounds” value is on record as “significantly lower” and the “Positive cell number (astrocytes with GFAP positive expression)” value was 76 ± 4. Moreover, in the experiment with primary glial cells, the “NO inhibitory rate compared with the styryl sulfone prototype compounds” value is recorded as “equivalent or higher inhibitory rate” and the inhibition at 2 µM was 27.2 ± 3.98%. The inhibition at 5 µM in the experiment with primary glial cells (5 μM) came out at 64.2 ± 3.25%. Further, the inhibition at 10 µM in the experiment on primary glial cells (10 μM) is 85.8 ± 5.01%. For the same compound, in the experiment with HO-1, the “midbrain HO-1 expression compared with the styryl sulfone prototype compounds” value was “significantly higher” and the “Expression (HO-1/GAPDH)” value is 1.35 ± 0.10. In the experiment on hippocampus CD11b, the “number of hippocampus microglial cells with CD11b positive expression compared with the styryl sulfone prototype compounds” value was “significantly lower” and the “Positive cell number (microglial cells with CD11b positive expression)” value is listed as 6 ± 1. Besides, in the experiment with midbrain CD11b, the “midbrain CD11b protein expression compared with the styryl sulfone prototype compounds” value is given as “equivalent or lower” and the “Expression (CD11b/GAPDH)” value is listed as 0.50 ± 0.06. Besides, the “Expression (TH/GAPDH)” value with midbrain TH is 0.70 ± 0.03.

The inhibition is the drop in the measured response relative to a control, in per cent.
